Data taken from patent publication US12441763B2, “Hangtaimycin derivatives and their preparation methods and application” (WUHAN UNIVERSITY, priority 2022, dated 2025).

How the values were obtained:
[1] = test system: breast cancer; assay: Antitumor activity, MTT cell viability, breast cancer; format: cell-based; conditions: 50 μg/mL, 24 hours, P<0.01
Description: (§1) In a 96-well microplate, 100 μL of culture medium was put in each well and inoculate four cell strains with a fusion degree of 80% at a density of 8×10^3 cells. Cells were grown at 37° C., CO2 (5%) and air (95%). Each 96-well plate was placed with a concentration gradient of 0˜100 μg/mL of test compounds HTM, HTMA, HTMB, and HTMP. After 24 hours of incubation, the medium was removed, and 0.5 mg/mL MTT solution was added to each medium with cells and continue to incubate the cells for 4 hours at 37° C. Then 100 μL of DMSO was added to dissolve formazan crystals. Finally, absorbance was measured at 570 nm using a microplate reader (Bioteck EON, USA). The viability of the cells was calculated as the percentage of cell viability compared to vehicle control-treated cells, which were arbitrarily assigned as 100% viability. Each independent experiment was repeated five times. (*P<0.05, **P<0.01, ***P<0.001)

[2] = test system: carrageenan-induced paw inflammation; assay: Anti-inflammatory effect in inflammatory model induced by carrageenan (paw); format: in vivo, Kunming mice; conditions: 10 mg/mL, 10 μL subcutaneous into right hind paw; 4 hours after carrageenan injection; vs carrageenan+solvent group; P<0.05
Description: Male Kunming mice weighing 18˜22 g were adaptively reared for 1 day, and then randomly divided into […] (5˜6 mice per group): the saline+solvent group, the saline+HTM group, the saline+HTMP group, the saline+HTMA group, the saline+HTMB group, the saline+rapamycin (250 nM) group, the carrageenan+solvent group, the carrageenan+HTM group, the carrageenan+HTMP group, the carrageenan+HTMA group, the carrageenan+HTMB group, and the carrageenan+rapamycin (250 nM) group. Where doses used for HTM, HTMP, HTMA, and HTMB were set at 1, 3, and 10 mg/mL, and their solutions all contained 5% DMSO. Experiments were designed based on previous studies (Zhang et al., 2018). Carrageenan was used to induce paw inflammation, and the experimental procedure was as follows:
(1) The thickness of the right hind foot of mice was measured with a vernier caliper before the experiment, and the measurement site was marked.
(2) The experimental group was then subcutaneously injected into the right hind paw with 10 μL of different concentrations of compound solutions. The control group was injected with 10 μL saline into the right hind paw.
(3) After administration, the carrageenan group was injected subcutaneously with 30 μL of 1% carrageenan solution into the right hind paw, and the other groups were injected with an equal volume of saline. The thickness of the right hind foot of each mouse was measured at the same site every 1 hour for the following 4 hours to observe the effect of the compounds on the change in foot thickness.

[3] = test system: HepG2 cells; assay: Cellular assay for hepatoprotective activity, CCl4-induced liver injury cell model; format: cell-based; conditions: compared with the CCl4 group; HepG2 cell homogenates
Description: HepG2 cells were seeded into 24-well plates and kept at 37° C. in 5% CO2 in order to achieve 80% fusion. To evaluate the effects of HTMA, HTMB, and HTMP on aspartate aminotransferase (AST) and alanine aminotransferase (ALT) activity, and compare the results with those of Silymarin (positive control) (FIG. 26), a cellular assay for hepatoprotective activity was carried out using a CCl4-induced liver injury cell model. The cells were treated with the compounds followed by ultrasound disruption and cell homogenization to prepare the cell homogenates for analysis.

[4] = Antioxidant activity, DPPH free radical scavenging; format: biochemical; conditions: 1~50 μg/mL, 0.1 mM DPPH, absorbance at 517 nm
Description: In this experiment, a 0.1 mM DPPH solution was prepared with ethanol, and each sample solution/dispersion was separately mixed with the DPPH solution in order to dilute it into a reaction product with a concentration gradient of 1˜50 μg/mL to evaluate the concentration-dependent antioxidant potential. The reaction product was measured for its absorbance (AS) at 517 nm using an ultraviolet-visible spectrophotometer, and its antioxidant activity was measured using DPPH removal as an indicator. The percentage of DPPH free radical scavenging is calculated by the following formula: […]
AS is the absorbance of the sample and A0 is the absorbance of the control (only DPPH solution).

[5] = test system: bladder cancer; assay: Antitumor activity, MTT cell viability, bladder cancer; format: cell-based; conditions: 50 μg/mL, 24 hours, P<0.01
Description: as §1

[6] = test system: renal cancer; assay: Antitumor activity, MTT cell viability, renal cancer; format: cell-based; conditions: 50 μg/mL, 24 hours, P<0.01
Description: as §1

[7] = test system: liver cancer; assay: Antitumor activity, MTT cell viability, liver cancer; format: cell-based; conditions: 50 μg/mL, 24 hours, P<0.01
Description: as §1

Deoxyhangtaimycin [HTMP]
survival rate of breast cancer [1]: significantly inhibited
right hind foot thickness [2]: reduced
ALT levels [3]: significantly reduced
AST levels [3]: significantly reduced
antioxidant capacity (DPPH free radical scavenging) [4]: have antioxidant capacity
survival rate of bladder cancer [5]: significantly inhibited
survival rate of renal cancer [6]: significantly inhibited
survival rate of liver cancer [7]: significantly inhibited
